Results: PMC5618341, “Controlled inhibition of methyltransferases using photoswitchable peptidomimetics: towards an epigenetic regulation of leukemia” (Chemical Science, 2017)
Read-outs that look alike come from different tables or passages of the source. Starred links: 1 amine or outer side, 2 acyl side, 3 side chain; linkers in the order of their positions; H or OH if unused. Non-standard residues stand in square brackets, D forms with d. Residues, ends and D or L forms follow the SMILES beside them. AMPB = O=C(c1ccc(N=Nc2ccc(CN[*:1])cc2)cc1)[*:2]; Ahx = NCCCCCC(=O)O; βAla = NCCC(=O)O

Legend:
WDR5Δ23 [1] = biological target: T1, WDR5Δ23 (Homo sapiens, UniProt P61964); assay: Fluorescence polarization (FP)-based competitive binding assay
T1 construct: His6-SUMO (N, cleaved yes); made in house; host or cells: E. coli DH5α (so in the source)

[2] = biological target: MLL1 core complex (MLL1, WDR5, RbBP5, and ASH2L) (Homo sapiens, UniProt P61964); conditions: cis vs trans
Protocol: To test this, we studied the inhibition of MLL1 H3K4 methyltransferase activity through the previously reported in vitro HMT assay using the MLL1 core complex (i.e. MLL1, WDR5, RbBP5, and ASH2L) and the H3 20mer peptide as substrate.[17]
In Vitro Histone Methyltransferase (HMT) Assay
The HMT assay was performed, as previously described[25] with slight modifications, in 50 mM Tris pH 8.0, 50 mM NaCl, 1.0 mM DTT, 5 mM MgCl2 at room temperature. Each reaction contained 1.5 μM of the cofactor 3H-S-adenosylmethionine (Perkin-Elmer). H31-21 peptide was used as the substrate at 250 μM. […] Reactions were initiated by addition of the H3/SAM and allowed to proceed for 60 min before preparing scintillation counting. To count samples, reactions were spotted on separate squares of P81 filter paper (Millipore) and precipitated by submerging in freshly prepared 50 mM sodium bicarbonate buffer pH = 9.0. After washing and drying, the samples were vortexed in Ultima Gold scintillation fluid and counted.

[3] = Proliferation / cell viability assay (CellTiter-Glo); type: cell-based, mouse; conditions: trans isomer, 2.5 μM concentration, 96 h; read-out: viable cells
Protocol: We initially studied the cellular uptake and cell viability of our compounds in murine MLL-AF9-transduced mouse bone marrow cells (Fig. 5). In line with our expectations, peptidomimetics 16 and 17 that contained peptide 7 within their sequence are the ones that inhibited the cell proliferation of leukemia. […] Thus, while in the case of the trans isomer of peptidomimetic 16 we already determined less than 50% of viable cells at 2.5 μM concentration, with the WIN-containing conjugates 20 and 21 we measured 87% and 96% of viable cells at 50 μM concentration, respectively.
(§1) We then examined the potential of 16 and 17 to control externally the cellular response in proliferation assays. Thus, both isomers of both peptidomimetics were incubated at different concentrations for four days. After two days of incubation, the cells containing the cis isomers were irradiated at 430 nm for 90 seconds in a single isomerization cycle with a custom-made 6-well plate LED array.
MLL-AF9-transduced mouse bone marrow was cultured in IMDM medium + 15% FBS and supplemented with 10 ng/mL interleukin-3 (IL-3) at each passage, every other day.
DMSO) isomers, of peptides 7, 16, 17, as well as the peptides 18 and 19 were diluted from stock to culture media containing a 0.1% DMSO final concentration. For viability assays, […]
72 h and DMSO as control . For the cis-trans group, after 48 h treatment with cis peptides, the plate was irradiated at […] for 90 sec and continued to culture for 2 days in the dark.
Viability was determined using the CellTiter-Glo Kit (Promega) according to the a a ’ d . was monitored on a Molecular Devices plate reader.

[4] = Stability against GSH reduction; type: physicochemical; conditions: 10 mM GSH, four days, kept in the dark
Protocol: as §1
H-bond cut off < 3.5 Å, Van der Waals: […]. N 3.81
Evaluation of Stability against GSH-reduction of Peptides
To test the stability of the AMPB-containing peptides 16 and 17 against reduction by glutathione (GSH), the peptides were incubated with GSH for 4 days.
Figure S72. Left: HPLC chromatograms of peptides, incubated with 10 mM GSH, recorded after different time periods. Left: peptide 16. Right: peptide 17. […]
peptides 16 and 17 (10 μM) in 0.1 M phosphate buffer pH = 7 were mixed giving final concentrations of 10 mM of GSH and 9.6 μM of the peptides, respectively. After different time periods, HPLC chromatograms of these mixtures were recorded (gradient: 5-40% B) (Figure […]
In Vitro Methyl Transferase Assay with MLL1 Core Complex
Full length constructs of both, RbBP5 (residues 1−538) and Ash2L (residues 1−635), were used for expression. […] MLL1, WDR5, RbBP5, and ASH2L were expressed as His-SUMO fusions from the pET28A-SUMO vector in BL21 DE3 pLyss codon (+) cells at 16 °C overnight. […]

[5] = system: Deptor gene (MLL1 target gene); assay: Real-time PCR of Deptor mRNA expression; type: cell-based, mouse; conditions: 10 μM, 96 h, RT-PCR, standardized to GAPDH, vs Mock
Text: Finally, we tested whether our probe acts as an optoepi-genetic inhibitor and controls expression of MLL1 target genes. We used the Deptor gene as a reporter, given its importance in hematopoiesis and leukemogenesis,[51],[52] as well as significant regulation by MLL1 inhibition.[53] To this end, we examined Deptor expression by real-time PCR (RT-PCR). […] Of note, a small but significant (p = 0.008) difference between cis and trans isomers was observed. […] There is no statistically significant difference between cis isomer of 17 and the control.
Fig. 8 Relative Deptor mRNA expression levels in murine MLL-AF9-transduced mouse bone marrow cells after 96 h of incubation at 10 μM; they were analysed by RT-PCR and standardized to the endogenous GAPDH control. The significance is corroborated by the p-value.
Real Time Quantitative PCR Analysis of Deptor Gene
Murine MLL1-AF9 transformed bone marrow cells were obtained by transducing normal murine bone marrow cells with MLL1-AF9 oncogene according to the procedures described […]
100 mM stock) isomers, of peptides 7, 16, 17, as well as the peptides 18 and 19 were […]
The transformed cells were treated with different concentrations of the respective peptide (1.0, 5.0, 10 μM) and Mock (0.1% DMSO), giving a final concentration of 0.1% DMSO in all the samples. […] Relative quantification of each gene transcript was carried out as described previously.[28] […]

WDR5Δ23 [6] = biological target: T1, WDR5Δ23; parameters: method as in PMID 20575550; conditions: interaction with WDR5; cited from earlier work
[7] = non-irradiated peptide (trans isomer), 72 nM WDR5Δ23, 20 nM tracer 22, read-out: IC50, non-irradiated (trans)
[8] = non-irradiated peptide (trans isomer), 72 nM WDR5Δ23, 20 nM tracer 22, read-out: Ki, non-irradiation (trans)

Compound	IC50 (WDR5Δ23 [1]; [7])	Ki (WDR5Δ23 [1]; [8])	stability of cis isomer against glutathione [4]	Deptor mRNA expression (in words) [5]	also measured
CC(C)C[C@H](NC(=O)[C@H](Cc1c[nH]cn1)NC(=O)[C@@H](NC(=O)c1ccc(N=Nc2ccc(CNC(=O)[C@H](C)NC(=O)[C@H](CCCNC(=N)N)NC(=O)[C@H](C)NC(=O)[C@@H](N)CO)cc2)cc1)C(C)C)C(=O)N[C@@H](CCCNC(=N)N)C(=O)N[C@@H](CCCCN)C(=O)N[C@@H](CO)C(N)=O [peptide 7, H2N-SARAXVHLRKS-CONH2] (H-SARA[AMPB]VHLRKS-NH2)	146 ± 21 nM	1.25 ± 0.36 nM			IC50 (WDR5Δ23 [1]; IC50 cis (with 5 nM tracer), cis isomer (366 nm), 20 nM WDR5Δ23, 5 nM tracer 22): 147 ± 14 nM; IC50 (WDR5Δ23 [1]; IC50 trans (with 5 nM tracer), trans isomer, 20 nM WDR5Δ23, 5 nM tracer 22): 57 ± 11 nM; Ki (WDR5Δ23 [1]; Ki cis (with 5 nM tracer), cis isomer (366 nm), 20 nM WDR5Δ23, 5 nM tracer 22): 6.37 ± 1 nM; Ki (WDR5Δ23 [1]; Ki trans (with 5 nM tracer), trans isomer, 20 nM WDR5Δ23, 5 nM tracer 22): 2.03 ± 0.42 nM; difference in IC50 between both isomers [2]: more than 15 fold
CC(C)C[C@H](NC(=O)[C@H](Cc1c[nH]cn1)NC(=O)[C@@H](NC(=O)c1ccc(N=Nc2ccc(CNC(=O)[C@H](C)NC(=O)[C@H](CCCNC(=N)N)NC(=O)[C@H](C)NC(=O)[C@@H](N)CO)cc2)cc1)C(C)C)C(=O)N[C@@H](CCCNC(=N)N)C(=O)N[C@@H](CCCCN)C(=O)N[C@@H](CO)C(=O)N[C@@H](CCCNC(=N)N)C(=O)N[C@@H](CCCNC(=N)N)C(=O)N[C@@H](CCCNC(=N)N)C(=O)N[C@@H](CCCNC(=N)N)C(=O)N[C@@H](CCCNC(=N)N)C(=O)N[C@@H](CCCNC(=N)N)C(=O)N[C@@H](CCCNC(=N)N)C(=O)N[C@@H](CCCNC(=N)N)C(N)=O [peptide 16, H2N-SARA-AMPB-VHLRKS-R8-NH2] (H-SARA[AMPB]VHLRKSRRRRRRRR-NH2)	135 ± 5 nM	1.18 ± 0.095 nM	suitable cis/trans ratio		viability at 2.5 µM [3]: < 50%
CC(C)C[C@H](NC(=O)[C@H](Cc1c[nH]cn1)NC(=O)[C@@H](NC(=O)c1ccc(N=Nc2ccc(CNC(=O)[C@H](C)NC(=O)[C@H](CCCNC(=N)N)NC(=O)[C@H](C)NC(=O)[C@@H](N)CO)cc2)cc1)C(C)C)C(=O)N[C@@H](CCCNC(=N)N)C(=O)N[C@@H](CCCCN)C(=O)N[C@@H](CO)C(=O)N[C@@H](CCCNC(=N)N)C(=O)NCCCCCC(=O)N[C@@H](CCCNC(=N)N)C(=O)N[C@@H](CCCNC(=N)N)C(=O)NCCCCCC(=O)N[C@@H](CCCNC(=N)N)C(=O)N[C@@H](CCCNC(=N)N)C(=O)NCCCCCC(=O)N[C@@H](CCCNC(=N)N)C(=O)N[C@@H](CCCNC(=N)N)C(=O)NCCCCCC(=O)N[C@@H](CCCNC(=N)N)C(=O)NCCCCCC(=O)NCCC(N)=O [peptide 17, H2N-SARA-AMPB-VHLRKS-(RahxR)4RAhxB-NH2] (H-SARA[AMPB]VHLRKSR[Ahx]RR[Ahx]RR[Ahx]RR[Ahx]R[Ahx][βAla]-NH2)	120 ± 25 nM	0.925 ± 0.39 nM	suitable cis/trans ratio		
N=C(N)NCCC[C@H](NC(=O)[C@H](CCCNC(=N)N)NC(=O)[C@H](CCCNC(=N)N)NC(=O)[C@H](CCCNC(=N)N)NC(=O)[C@H](CCCNC(=N)N)NC(=O)[C@H](CCCNC(=N)N)NC(=O)[C@H](CCCNC(=N)N)NC(=O)[C@@H](N)CCCNC(=N)N)C(N)=O [peptide 18]				not affected	
N=C(N)NCCC[C@H](NC(=O)CCCCCNC(=O)[C@H](CCCNC(=N)N)NC(=O)[C@H](CCCNC(=N)N)NC(=O)CCCCCNC(=O)[C@H](CCCNC(=N)N)NC(=O)[C@H](CCCNC(=N)N)NC(=O)CCCCCNC(=O)[C@H](CCCNC(=N)N)NC(=O)[C@H](CCCNC(=N)N)NC(=O)CCCCCNC(=O)[C@@H](N)CCCNC(=N)N)C(=O)NCCCCCC(=O)NCCC(N)=O [peptide 19] (H-R[Ahx]RR[Ahx]RR[Ahx]RR[Ahx]R[Ahx][βAla]-NH2)				not affected	
Ac-ARAEVHLRKS-NH2 [peptide 2]					Ki (WDR5Δ23 [6]): 3 nM
